According to article PMC6017107 (Molecules : A Journal of Synthetic Chemistry and Natural …, 2018):
“Also recorded” adds a separate entry of the source. Like-named read-outs stand apart in the source and are kept apart here.

Tests used:
[1] = tested on: P-gp; details: cited from earlier work; for IC50: Caco-2 cells
[2] = tested on: P-gp; details: ref [7], cited from earlier work; for Effects on the P-gp mediated transport in vitro: KB-C2; for Increase of accumulation of rhodamine 123: KB-C2 cells
[3] = in vivo; details: for Increase of the Kp of doxorubicin in the kidney by pretreatment, comparing with control: 2 h after administration; for Increase of the Kp of doxorubicin in the liver by pretreatment: mice (matches 2 h values of Table 4)
Experimental: (§1) Male ICR mice (age: 5–6 weeks old; body weight: 30 ± 2 g) were purchased from Samtako Co. (Osan, Gyeonggi-do, Korea), housed in plastic cages and given free access to a standard animal diet (Daejong, Seoul, Korea) and water. The environment was maintained under the following conditions: temperature, 23 ± 1 °C; 12-h light-dark cycle; and relative humidity, 50% ± 10%. The animals were acclimatized for a minimum period of 1 week and fasted overnight prior to experimentation.
(§2) The mice were randomly divided into four groups. Each group was pretreated with either control vehicle (a mixture of DMSO:PEG 400:distilled water; 5:45:50, v/v), piperine (10 mg/kg), capsaicin (5 mg/kg), or [6]-gingerol (5 mg/kg). The treatment solutions of piperine, capsaicin and [6]-gingerol were prepared by the dissolution of each compound in the DMSO:PEG 400:distilled water mixture at concentrations of 2, 1 and 1 mg/mL, respectively. The treatment solutions were administered intraperitoneally twice with τ = 60 min for control vehicle and piperine and τ = 30 min for capsaicin and [6]-gingerol. […] The physiological conditions of the animals were carefully monitored during the study.
(§3) The volume of injected dosing vehicle was 5 mL/kg. […] Plasma was harvested by centrifugation at 16,000× g for 10 min and immediately stored at −20 °C until analysis. […] All excised tissues were accurately weighed and homogenized (Tissue Tearor, Biospec Products Inc., Bartlesville, OK, USA) with appropriate volumes of isotonic saline. The obtained tissue homogenates were stored at −20 °C until analysis.
(§4) Sample analyses were conducted on an Agilent 6430 triple quadrupole mass spectrometer coupled with an Agilent 1200 HPLC (Agilent, Santa Clara, CA, USA). […] Chromatographic separation was performed using a binary gradient mobile phase composed of acetonitrile (A) and 0.05% formic acid (B) and programmed as follows: initial conditions, 20% A (0.3 mL/min) for 0.1 min and 80% A for 3 min; increased to 90% A in 0.1 min and maintained for 1 min; returned to the initial composition; followed by a 3.2-min equilibration step (1.5 min for 0.3 mL/min and then 1.7 min for 0.5 mL/min). The ESI source was operated in positive mode with curtain and nebulizer gas set at 10 and 20 psi, respectively. The capillary voltage and gas temperature were 4000 V and 300 °C, respectively.
(§5) The IS working solution (20 μL of 100 ng/mL IS solution for plasma and 50 μL of 100 ng/mL IS solution for tissue samples) and acetonitrile (50 μL for plasma and 80 μL for tissue samples) were added to 20 μL of plasma and 50 μL of tissue samples and mixed on a vortex mixer for 1 min. The mixture was then centrifuged at 16,000× g (Biofuge Fresco, Kendro, Osterode, Germany) for 10 min. For tissue samples, 100 μL of the supernatant was re-precipitated with an equal volume of acetonitrile and centrifuged at 16,000× g for 10 min. Finally, 50 μL distilled water was added to 50 μL of each supernatant, followed by mixing and injection of 10 μL of the sample mixture onto the LC-MS/MS. Data acquisition was performed with MassHunter Quantitative Analysis (Agilent, Santa Clara, CA, USA).
(§6) The pharmacokinetic parameters were determined by non-compartmental analysis using Phoenix® WinNonlin® 6.4 (Certara, L.P., Princeton, NJ, USA). As the procedure entailed destructive sampling, the non-compartmental analysis was performed by using the average plasma concentration vs. time data. These parameters included terminal half-life (t1/2), area under the plasma concentration-time curve from time zero to infinity (AUCinf), apparent volume of distribution during the terminal phase (Vz), the volume of distribution at steady state (Vss) and systemic clearance (CL).

[4] = tested on: mice; details: cited from earlier work
[5] = tested on: KB-C2 cells; details: substrate Vinblastine, ref [7]; cited from earlier work
[6] = Plasma pharmacokinetics of phytochemicals after intraperitoneal injection
Experimental: as §1, §2, §3, §4, §5, §6

[7] = tested on: Caco-2 cells; details: ref [6]; cited from earlier work
[8] = cited from earlier work
[9] = Plasma pharmacokinetics of doxorubicin i.v. in mice pretreated with phytochemical P-gp modulators; details: male, ICR, mouse, in vivo, iv, 1 mg/kg, i.v. 1 mg/kg; for C0: C0 of doxorubicin; for clearance: CL of doxorubicin; for half-life: t1/2 of doxorubicin
Experimental: as §1, §2, §3, §4, §5, §6

[10] = tested on: P-gp, MRP1 and BCRP; details: ref [30], cited from earlier work
[11] = tested on: MCF-7/DOX, A-549/DDP cells; details: ref [30], cited from earlier work
[12] = tested on: ABC transporter genes; details: MCF-7/DOX, A-549/DDP; ref [30]; cited from earlier work
[13] = Tissue distribution of phytochemicals after intraperitoneal administration; details: mouse, in vivo, ip
Experimental: as §1
The mice were randomly divided into four groups. Each group was pretreated with either control vehicle (a mixture of DMSO:PEG 400:distilled water; 5:45:50, v/v), piperine (10 mg/kg), capsaicin (5 mg/kg), or [6]-gingerol (5 mg/kg). […] The physiological conditions of the animals were carefully monitored during the study. […]
The IS working solution (20 μL of 100 ng/mL IS solution for plasma and 50 μL of 100 ng/mL IS solution for tissue samples) and acetonitrile (50 μL for plasma and 80 μL for tissue samples) were added to 20 μL of plasma and 50 μL of tissue samples and mixed on a vortex mixer for 1 min. […] Data acquisition was performed with MassHunter Quantitative Analysis (Agilent, Santa Clara, CA, USA).
The pharmacokinetic parameters were determined by non-compartmental analysis using Phoenix® WinNonlin® 6.4 (Certara, L.P., Princeton, NJ, USA). […]

[14] = male, ICR, mouse, in vivo, ip, 5 mg/kg
[15] = A-549/DDP, substrate Doxorubicin
[16] = male, ICR, mouse, in vivo, ip, 10 mg/kg

COc1cc(CNC(=O)CCCC/C=C/C(C)C)ccc1O [Capsaicin]
Effects on the P-gp mediated transport in vitro ([1]; Caco-2, substrate [3H] Digoxin, ref [6]): inhibited digoxin efflux mediated by P-gp; also recorded: Inhibited P-gp mediated efflux transport | Effects on the P-gp mediated transport in vitro ([2]; substrate Daunorubicin): Increased cellular accumulation | Effects on the P-gp mediated transport in vitro ([2]; substrate Rhodamine 123): Inhibited efflux transport | Increase of accumulation of rhodamine 123 ([2]; 50 μmol/L capsaicin): 4 fold | Increase of the Kp of doxorubicin in the brain by pretreatment ([3]; brain, 2 h, mice): 3.33 fold | Increase of the Kp of doxorubicin in the kidney by pretreatment, comparing with control ([3]; mice): 1.95 fold | Increase of the Kp of doxorubicin in the liver by pretreatment [3]: 6.21 fold | LD50 ([4]; i.p., mice, ref [57],[58]): 7.6 mg/kg | Effects on the P-gp mediated transport in vitro [5]: Increased vinblastine cytotoxicity by inhibition of efflux transporter | Detection in plasma ([6]; i.p. 5 mg/kg, mice, plasma): not detected 2–4 h after administration | AUC(0-inf) [6, 14]: 66.8 ng·h/mL | CL/F [6, 14]: 1250 mL/min/kg | Cmax [6, 14]: 119 ng/mL | Tmax [6, 14]: 0.17 h | Vd/F [6, 14]: 35.7 L/kg | half-life [6, 14]: 0.33 h | Cytotoxicity [7]: no resulting cytotoxicity

COc1cccc2c1C(=O)c1c(O)c3c(c(O)c1C2=O)C[C@@](O)(C(=O)CO)C[C@@H]3O[C@H]1C[C@H](N)[C@H](O)[C@H](C)O1 [Doxorubicin]
Kp ([3]; male, ICR, mouse, in vivo, iv, 1 mg/kg, Doxorubicin Kp values): > 35.4 | Injected doxorubicin excreted in bile ([8]; bile duct-cannulated rats, ref [45]): 33–35% | Injected doxorubicin eliminated via urine ([8]; bladder-cannulated rats, ref [45]): 4–8% | Initial dose appearing in the bile as unchanged doxorubicin ([8]; rats, within 3 h, ref [43]): approximately 30% | C0 ([9]; pretreatment Capsaicin): 4430 ng/mL | C0 ([9]; pretreatment Control): 3980 ng/mL | C0 ([9]; pretreatment Piperine): 3400 ng/mL | C0 ([9]; pretreatment [6]-Gingerol): 4040 ng/mL | clearance ([9]; pretreatment Capsaicin): 25.2 mL/min/kg | clearance ([9]; pretreatment Control): 31 mL/min/kg | clearance ([9]; pretreatment Piperine): 25.6 mL/min/kg | clearance ([9]; pretreatment [6]-Gingerol): 28.8 mL/min/kg | half-life ([9]; pretreatment Capsaicin): 13.3 h | half-life ([9]; pretreatment Control): 17.4 h | half-life ([9]; pretreatment Piperine): 15.7 h | half-life ([9]; pretreatment [6]-Gingerol): 15.5 h

O=C(/C=C/C=C/c1ccc2c(c1)OCO2)N1CCCCC1 [Piperine]
Effects on the P-gp mediated transport in vitro ([1]; Caco-2, L-MDR1, substrate [3H] Digoxin, ref [5]): Inhibited P-gp mediated efflux transport | Effects on the P-gp mediated transport in vitro ([1]; Caco-2, substrates Digoxin, Cyclosporin A, ref [4]): Inhibited P-gp mediated efflux transport | IC50 ([1]; cyclosporine A, ref [4], read-out: IC50, inhibition of transport of P-gp substrate cyclosporine A): 74.1 µM | IC50 ([1]; digoxin, ref [4], read-out: IC50, inhibition of transport of P-gp substrate digoxin): 15.5 µM | Increase of the Kp of doxorubicin in the kidney by pretreatment, comparing with control ([3]; mice): 2.23 fold | Increase of the Kp of doxorubicin in the liver by pretreatment [3]: 5.44 fold | Effects on the P-gp mediated transport in vitro [10, 15]: Inhibited efflux activity of P-gp, MRP1 and BCRP | Effects on the P-gp mediated transport in vitro ([10]; MCF-7/DOX, substrates Rhodamine 123, Mitoxantrone): Inhibited efflux activity of P-gp, MRP1 and BCRP | Effects on the P-gp mediated transport in vitro [11, 15]: Increased cytotoxicity by reversing transporter mediated doxorubicin and mitoxantrone resistance | Effects on the P-gp mediated transport in vitro ([11]; substrate Mitoxantrone): Increased cytotoxicity by reversing transporter mediated doxorubicin and mitoxantrone resistance | LD50 ([4]; mouse, in vivo, ip): 60 mg/kg | Effects on the P-gp mediated transport in vitro [12]: Inhibited transcription of the corresponding ABC transporter genes | AUC(0-inf) [6, 16]: 9960 ng·h/mL | CL/F [6, 16]: 16.7 mL/min/kg | Cmax [6, 16]: 5050 ng/mL | Tmax [6, 16]: 0.75 h | Vd/F [6, 16]: 9.12 L/kg | half-life [6, 16]: 6.3 h | Kp at 2 h ([13]; male, ICR, 10 mg/kg): 1.69 ± 0.28

CCCCC[C@H](O)CC(=O)CCc1ccc(O)c(OC)c1 [[6]-Gingerol]
Effects on the P-gp mediated transport in vitro ([1]; Caco-2, L-MDR1, substrate [3H] Digoxin, ref [8]): Inhibited P-gp mediated efflux transport | Effects on the P-gp mediated transport in vitro ([1]; Caco-2, L-MDR1, substrate [3H] Digoxin, ref [8], listed as [6]-gingerol): inhibited P-gp-mediated digoxin transport | Effects on the P-gp mediated transport in vitro ([2]; substrate Daunorubicin): Increased cellular accumulation | Effects on the P-gp mediated transport in vitro ([2]; substrate Rhodamine 123): Inhibited efflux transport | Increase of accumulation of rhodamine 123 ([2]; in the presence of [6]-gingerol): 2.24 fold | LD50 ([4]; mouse, in vivo, ip): 58.1 mg/kg | Effects on the P-gp mediated transport in vitro [5]: Increased vinblastine cytotoxicity by inhibition of efflux transporter | AUC(0-inf) [6, 14]: 66.3 ng·h/mL | CL/F [6, 14]: 1260 mL/min/kg | Cmax [6, 14]: 153 ng/mL | Detection in plasma [6, 14]: not detected 2–4 h after administration | Tmax [6, 14]: 0.17 h | Vd/F [6, 14]: 148 L/kg | half-life [6, 14]: 1.36 h | Detection in brain, heart and testis [13]: not detected
